The record followed here is patent publication US20220184000A1, “USE OF CANNABIDIOL IN THE TREATMENT OF DRAVET SYNDROME” (priority 2019, published 2022).

Common to all, as to format: in vivo
In data set [1] the test system is Scn1a^+/− mice. The data set can be described thus: Accelerated rotarod test (motor function), Study II. Here is the method: (§1) Here, Scn1a^+/− were randomly divided into two groups and subcutaneously injected with either CBD (100 mg/kg twice daily; n=12) or its vehicle (ethanol:Kolliphor®:0.9% saline=2:1:17; n=29) from P8 onwards until P52 or death (whichever was earlier).
Fine motor control in animals were assessed by the accelerated rotarod and static beam tests. Animals were habituated to the stationary rotarod for 2 min a day for 2 days. In the accelerated rotarod test each mouse was placed individually on a linearly accelerating rod (4-40 rpm over 5 minutes; LE8500, Letica Scientific Instruments, UK) and average latency to fall from the rod (maximum 300 seconds) was calculated from 3 consecutive trials (2 min interval between trials).
(§2) In Study II, the data were analysed in GraphPad Prism 6 software. Survival curves of Scn1a^+/− vehicle-treated and Scn1a^+/− CBD-treated group were compared using a Mantel-Cox test. […] Data obtained from rotarod, gait, social interaction (active interaction), EPM, sucrose preference, RAM (RME) tests were normally distributed and the differences between the three groups were analysed by one-way ANOVA. […] Parametric data are presented in scattered dot plot in the figures and are expressed as mean±SEM. Non-parametric data are presented in box plot in the figures and are expressed as median, min to max, and interquartile range (IQR). […]
A general note: Falling from the rotarod earlier than controls is read as motor impairment.

The subject of data set [2] is Scn1a^+/− mice. The data set can be described thus: Survival / premature mortality in Scn1a^+/− mice, Study II (chronic model of Dravet syndrome). The protocol:
The animals were group housed throughout Study II except for 3 days during sucrose preference test when each animal was individually housed. This experiment was conducted in dark cycle (dim red light, 8:00-20:00 h). Male 129S-Scn1^atm1Kea/Mmjax heterozygote mice (Jackson Laboratory, USA) were bred with female wild type C57BL/6 mice (Charles River, UK) to obtain Scn1a^+/− and wild type (WT) littermate mice used in this study. At the end of the study, animals were humanely killed by cervical dislocation. […]
As seizure-related deaths in this model were unpredictable, animals were video monitored continuously (24 h×7 days) throughout the study and any mortality observed was cross checked with the available video footage to confirm the reason of death.
In Study II, the data were analysed in GraphPad Prism 6 software. […] Data obtained from rotarod, gait, social interaction (active interaction), EPM, sucrose preference, RAM (RME) tests were normally distributed and the differences between the three groups were analysed by one-way ANOVA. […] Parametric data are presented in scattered dot plot in the figures and are expressed as mean±SEM. Non-parametric data are presented in box plot in the figures and are expressed as median, min to max, and interquartile range (IQR). […]

Data set [3] relates to Scn1a^+/− mice. The data set can be described thus: Social interaction test, Study II. As to conditions: CBD 100 mg/kg s.c. twice daily. Here is the method: as §1
The social interaction test was conducted in the home cage of test mouse to assess the social behaviour of the animals (Sato, Mizuguchi, & Ikeda, 2013). On test day, cage mate(s) were removed from the home cage of the test mouse and the mouse remained in isolation for 15 minutes. A novel wild type mouse of same strain, same sex and similar weight to the test mouse was then introduced to the home cage of the test mouse. Activity was video recorded (Sony DCR-SX21E) for 10 minutes and the obtained video files were blinded at the end of all experiments. Time spent in active interactions (e.g. close following, sniffing, allogrooming/social grooming and mounting) and number of rearing (lifting the front paws on the air) occasions were coded offline using Observer XT 12 (Noldus, Netherlands). Aggressive behaviours were not considered as social interactions and were not coded. In this test, a reduced social interaction is considered as autistic-like behaviour (Sato et al., 2013), while increased rearing occasions is sign of defensive escapes (Kaplan et al., 2017).
as §2

Take `C=C(C)[C@@H]1CCC(C)=C[C@H]1c1c(O)cc(CCCCC)cc1O` [CBD, cannabidiol]: in the data set with Scn1a^+/− mice [1] (WT vehicle, Scn1a^+/− vehicle, Scn1a^+/− CBD (100 mg/kg s.c. twice daily), p=0.44, FIG. 3A), the “time spent on rod, accelerating rotarod, between the groups” value is listed as “no significant difference”. Moreover, the “effects on motor function (conclusion)” value in the data set with Scn1a^+/− mice [1] (conclusion from rotarod and static beam tests in Scn1a^+/− mice, chronic CBD 100 mg/kg s.c. twice daily) is reported as “no detrimental effects on motor function”. Moreover, in the data set on Scn1a^+/− mice [2] (CBD 100 mg/kg s.c. twice daily from P8 until P52 or death, n=12 CBD, n=29 vehicle, Mantel-Cox p=0.04, FIG. 2A), the “survival curve, Scn1a^+/− vehicle-treated versus CBD-treated” value was “Survival was significantly less in Scn1a^+/− vehicle-treated group”. Also, the “animals that died before the completion of the study (P52)” value in the data set with Scn1a^+/− mice [2] (Scn1a^+/− CBD-treated, 2 of 12, CBD 100 mg/kg s.c. twice daily from P8, vehicle approximately 66% (19 of 29), p<0.0001, FIG. 2B) amounted to 17%. Further, the “rearing events, Scn1a^+/− CBD-treated versus WT vehicle-treated” value in the data set with Scn1a^+/− mice [3] (p=0.55) is given as “No difference”. In the data set with Scn1a^+/− mice [3] (statement describes vehicle group relative to CBD group (n=10), p=0.0003, FIG. 4A), the “time spent on active interaction, Scn1a^+/− vehicle-treated compared to Scn1a^+/− CBD-treated” value was “significantly less time”. Also, the “number of rearing occasions, Scn1a^+/− vehicle-treated compared to Scn1a^+/− CBD-treated” value in the data set on Scn1a^+/− mice [3] (statement describes vehicle group relative to CBD group, p=0.0003, FIG. 4B) is listed as “significantly higher number of rearing occasions”.
